{
  "source": "patent USRE48461E1",
  "about": "“Modulation of androgen receptor expression” (Ionis Pharmaceuticals, Inc., priority 2012, dated 2021)",
  "format_in_all_cases": "cell-based, human",
  "key": {"22RV1 cells": {"test_system": "22RV1 cells", "test": "22RV1 cell proliferation, ASO in combination with MDV3100 (Example 22)", "conditions": "Homo sapiens, 22Rv1, read-out: inhibited proliferation, MDV3100 with control oligonucleotide ISIS 549148", "description": "22RV1 cells were plated at 2,000 cells per well in 5% CSS medium for 48 hours. […] ISIS 549148 was included as a negative control. […] After a treatment period of 3 days, the proliferative capacity of the cancer cells was measured with CellTiter 96® AQueous One Solution Cell Proliferation kit (Promega), following the manufacturer's instructions. Results are presented in Tables 58-62 as percent inhibition of proliferation, relative to non-treated cells."}, "AR mRNA": {"test_system": "AR mRNA", "test": "AR RNA expression in C4-2 cells (complete, CSS+DHT medium)", "conditions": "48 hrs; for Percent expression of AR / AR expression: C4-2 cells; for Percent expression of AR: CSS + DHT medium", "description": "Cells were plated at 1,000 cells per well. […] After an incubation period of 48 hrs, RNA levels of AR, PSA and TMPRSS2 were measured.\nCells were plated at 2,000 cells per well and cultured in CSS media with 1 nM DHT. […] After an incubation period of 48 hrs, RNA levels of AR, PSA and TMPRSS2 were measured."}, "C4-2 cells": {"test_system": "C4-2 cells", "test": "C4-2 cell proliferation (complete or CSS+DHT medium)", "conditions": "5 days; for Proliferation (% untreated control): C4-2 cells", "description": "After a treatment period of 5 days in complete medium or CSS+1 nM DHT medium, the proliferative capacity of the cancer cells was measured with using CellTiter 96® AQueous One Solution or CellTiter-Glo® Cell Proliferation kit (Promega), following the manufacturer's instructions. […] The proliferative capacity of cells cultured in CSS medium without DHT is 17% of untreated control levels."}, "PSA mRNA": {"test_system": "PSA mRNA", "test": "PSA expression in VCaP cells", "conditions": "48 hrs", "description": "(§1) Cells were plated at 10,000 cells per well. […] After an incubation period of 48 hrs, RNA levels of full length AR, the V7 variant, PSA and TMPRSS2 were measured.\n(§2) After an incubation period of 48 hrs, RNA levels of full length AR, the V7 variant, PSA and TMPRSS2 were measured. The data is presented in Tables 108 expressed as percent expression of gene levels compared to the untreated control.\n(§3) Cells were plated at 15,000 cells per well and cultured in CSS media for 16 hours. […] After 4 hrs, 1 nM DHT was added. […] After an incubation period of 48 hrs, RNA levels of AR, PSA and TMPRSS2 were measured."}, "TMPRSS2 mRNA [1]": {"test_system": "TMPRSS2 mRNA", "test": "TMPRSS2 expression in VCaP cells", "conditions": "48 hrs", "description": "as §1, §2, §3"}, "VCaP cells": {"test_system": "VCaP cells", "test": "VCaP apoptosis (Caspase-Glo 3/7)", "conditions": "complete medium, 72 hours", "description": "After a treatment period of 72 hours in complete medium, apoptosis of the cancer cells was measured with Caspase-Glo 3/7 assay (Promega). Results are presented in Tables 117 and 118 as percent apoptosis of the cells, relative to non-treated cells."}, "TMPRSS2 mRNA [2]": {"test_system": "TMPRSS2 mRNA", "test": "TMPRSS2 expression in 22RV1 cells", "conditions": "48 hrs", "description": "Cells were plated at 1,000 cells per well. […] After an incubation period of 48 hrs, RNA levels of full length AR, the V7 variant, PSA and TMPRSS2 were measured.\nAfter an incubation period of 48 hrs, RNA levels of full length AR, the V7 variant, PSA and TMPRSS2 were measured.\nCells were plated at 2,000 cells per well and cultured in CSS media for 16 hours. […] After 4 hrs, 1 nM DHT was added. […] After an incubation period of 48 hrs, RNA levels of AR, AR V7 variant, PSA and TMPRSS2 were measured."}},
  "data": [
    {"compound": "CNC(=O)c1ccc(N2C(=S)N(c3ccc(C#N)c(C(F)(F)F)c3)C(=O)C2(C)C)cc1F", "note": "[MDV3100, 4-(3-(4-cyano-3-(trifluoromethyl)phenyl)-5,5-dimethyl-4-oxo-2-thioxoimidazolidin-1-yl)-2-fluoro-N-methylbenzamide, reference compound]", "values": [
      {"measurement": "inhibition at 1 µM", "setting": "22RV1 cells", "value": 5, "unit": "%"},
      {"measurement": "Percent expression of AR", "setting": "AR mRNA; 0.04 μM", "value": 101, "unit": "%"},
      {"measurement": "Percent expression of AR", "setting": "AR mRNA; 0.2 μM", "value": 109, "unit": "%"},
      {"measurement": "AR expression", "setting": "AR mRNA; CSS+DHT medium", "value": "increased AR expression in the cells"},
      {"measurement": "AR expression", "setting": "AR mRNA; complete medium", "value": "increased AR expression in the cells"},
      {"measurement": "Percent expression of AR in C4-2 cells cultured in complete medium", "setting": "AR mRNA; complete medium, 0.04 μM", "value": 95, "unit": "%"},
      {"measurement": "Percent expression of AR in C4-2 cells cultured in complete medium", "setting": "AR mRNA; complete medium, 0.2 μM", "value": 99, "unit": "%"},
      {"measurement": "Percent expression of AR in C4-2 cells cultured in complete medium", "setting": "AR mRNA; complete medium, 1 μM", "value": 132, "unit": "%"},
      {"measurement": "Percent expression of AR in C4-2 cells cultured in complete medium", "setting": "AR mRNA; complete medium, 5.0 μM", "value": 137, "unit": "%"},
      {"measurement": "Proliferation (% untreated control)", "setting": "C4-2 cells; CSS + DHT medium, 0.04 μM", "value": 122, "unit": "% untreated control"},
      {"measurement": "Proliferation (% untreated control)", "setting": "C4-2 cells; CSS + DHT medium, 0.2 μM", "value": 124, "unit": "% untreated control"},
      {"measurement": "Proliferation (% untreated control)", "setting": "C4-2 cells; CSS + DHT medium, 1 μM", "value": 87, "unit": "% untreated control"},
      {"measurement": "Proliferation (% untreated control)", "setting": "C4-2 cells; CSS + DHT medium, 5.0 μM", "value": 22, "unit": "% untreated control"},
      {"measurement": "Proliferation (% untreated control)", "setting": "C4-2 cells; complete medium, 0.04 μM", "value": 105, "unit": "% untreated control"},
      {"measurement": "Proliferation (% untreated control)", "setting": "C4-2 cells; complete medium, 0.2 μM", "value": 108, "unit": "% untreated control"},
      {"measurement": "Proliferation (% untreated control)", "setting": "C4-2 cells; complete medium, 1 μM", "value": 71, "unit": "% untreated control"},
      {"measurement": "Proliferation (% untreated control)", "setting": "C4-2 cells; complete medium, 5.0 μM", "value": 67, "unit": "% untreated control"},
      {"measurement": "proliferation of C4-2 cells", "setting": "C4-2 cells; complete medium or CSS+1 nM DHT", "value": "reduced proliferation of the cells in a dose dependent manner compared to the control"},
      {"measurement": "Percent of gene expression, PSA", "setting": "PSA mRNA; CSS + DHT medium, 0.04 μM", "value": 90, "unit": "%"},
      {"measurement": "Percent of gene expression, PSA", "setting": "PSA mRNA; CSS + DHT medium, 0.2 μM", "value": 72, "unit": "%"},
      {"measurement": "Percent of gene expression, PSA", "setting": "PSA mRNA; CSS + DHT medium, 1.0 μM", "value": 57, "unit": "%"},
      {"measurement": "Percent of gene expression, PSA", "setting": "PSA mRNA; CSS + DHT medium, 5.0 μM", "value": 30, "unit": "%"},
      {"measurement": "Percent of gene expression, PSA", "setting": "PSA mRNA; complete medium, 0.04 μM", "value": 105, "unit": "%"},
      {"measurement": "Percent of gene expression, PSA", "setting": "PSA mRNA; complete medium, 0.2 μM", "value": 76, "unit": "%"},
      {"measurement": "Percent of gene expression, PSA", "setting": "PSA mRNA; complete medium, 1.0 μM", "value": 75, "unit": "%"},
      {"measurement": "Percent of gene expression, PSA", "setting": "PSA mRNA; complete medium, 5.0 μM", "value": 61, "unit": "%"},
      {"measurement": "Percent of gene expression, TMPRSS2", "setting": "TMPRSS2 mRNA [1]; CSS + DHT medium, 0.04 μM", "value": 115, "unit": "%"},
      {"measurement": "Percent of gene expression, TMPRSS2", "setting": "TMPRSS2 mRNA [1]; CSS + DHT medium, 0.2 μM", "value": 96, "unit": "%"},
      {"measurement": "Percent of gene expression, TMPRSS2", "setting": "TMPRSS2 mRNA [1]; CSS + DHT medium, 1.0 μM", "value": 70, "unit": "%"},
      {"measurement": "Percent of gene expression, TMPRSS2", "setting": "TMPRSS2 mRNA [1]; CSS + DHT medium, 5.0 μM", "value": 42, "unit": "%"},
      {"measurement": "Percent of gene expression, TMPRSS2", "setting": "TMPRSS2 mRNA [1]; complete medium, 0.04 μM", "value": 131, "unit": "%"},
      {"measurement": "Percent of gene expression, TMPRSS2", "setting": "TMPRSS2 mRNA [1]; complete medium, 0.2 μM", "value": 121, "unit": "%"},
      {"measurement": "Percent of gene expression, TMPRSS2", "setting": "TMPRSS2 mRNA [1]; complete medium, 5.0 μM", "value": 141, "unit": "%"},
      {"measurement": "Apoptosis (% untreated control) in VCaP cells treated with MDV-3100", "setting": "VCaP cells; 5.0 nM", "value": 528, "unit": "%"},
      {"measurement": "Apoptosis (% untreated control) in VCaP cells treated with MDV-3100", "setting": "VCaP cells; 0.04 μM", "value": 186, "unit": "%"},
      {"measurement": "Apoptosis (% untreated control) in VCaP cells treated with MDV-3100", "setting": "VCaP cells; 0.2 μM", "value": 210, "unit": "%"},
      {"measurement": "Apoptosis (% untreated control) in VCaP cells treated with MDV-3100", "setting": "VCaP cells; 1.0 μM", "value": 612, "unit": "%"},
      {"measurement": "apoptosis of VCaP cells", "setting": "VCaP cells", "value": "increased apoptosis of the cells in a dose dependent compared to the control"},
      {"measurement": "Percent of gene expression, TMPRSS2", "setting": "TMPRSS2 mRNA [2]; CSS + DHT medium, 0.04 μM", "value": 17, "unit": "%"},
      {"measurement": "Percent of gene expression, TMPRSS2", "setting": "TMPRSS2 mRNA [2]; CSS + DHT medium, 0.2 μM", "value": 9, "unit": "%"},
      {"measurement": "Percent of gene expression, TMPRSS2", "setting": "TMPRSS2 mRNA [2]; CSS + DHT medium, 1.0 μM", "value": 26, "unit": "%"},
      {"measurement": "Percent of gene expression, TMPRSS2", "setting": "TMPRSS2 mRNA [2]; CSS + DHT medium, 5.0 μM", "value": 18, "unit": "%"},
      {"measurement": "Percent of gene expression, TMPRSS2", "setting": "TMPRSS2 mRNA [2]; complete medium, 0.04 μM", "value": 101, "unit": "%"},
      {"measurement": "Percent of gene expression, TMPRSS2", "setting": "TMPRSS2 mRNA [2]; complete medium, 0.2 μM", "value": 80, "unit": "%"},
      {"measurement": "Percent of gene expression, TMPRSS2", "setting": "TMPRSS2 mRNA [2]; complete medium, 1.0 μM", "value": 82, "unit": "%"},
      {"measurement": "Percent of gene expression, TMPRSS2", "setting": "TMPRSS2 mRNA [2]; complete medium, 5.0 μM", "value": 93, "unit": "%"}
    ]}
  ]
}
